Results taken from patent US20100041704A1, “DERMAL COMPOSITIONS OF SUBSTITUTED AMIDES AND THE USE THEREOF AS MEDICATION FOR PAIN AND PRURITUS” (priority 2007, published 2010).
Structures can show the parent of a compound that is named as a salt.

How the values were obtained:
[1] = saturation solubility in topical solvents/penetration enhancers; assay type: physicochemical
Experimental: Melting point ranges were determined with a capillary apparatus (Stuart) using a heating rate of 1° C./min. Moisture was measured using Karl Fischer titration (Schott TitroLine KF). Solubility was measured by adding an excess of solid to the solvent and allowing this suspension to equilibrate at 19-21° C. for at least 24 hours. […]
Solubility was measured by adding an excess of solid to the solvent and allowing this suspension to equilibrate at 19-21° C. for at least 24 hours. […]

[2] = test system: New Zealand White rabbits (skin); assay: dermal irritation studies; assay type: in vivo, rabbit; details: DMSO at lower concentrations (<90%) in combination with bupivacaine or ropivacaine
Experimental: Dermal irritation studies are performed in male and female New Zealand White rabbits (Harlan). This albino rabbit is recommended as the preferred species because of its size, skin permeability and extensive database. The number of animals being used in these studies is consistently increasing as new compositions are tested and previously tested compositions are being retested as references. Within 24 hours before the initiation of the test, fur is removed from the upper and lower dorsal trunks by clipping. Care is taken to avoid abrading the skin and only animals with healthy intact skin are being used. Histamine is used as the pruritic irritant. The compositions to be tested are applied to the skin of the animals for 60 min (±5 min). The new compositions, with or without bupivacaine 5 to 10 percent, are applied on 6-ply gauze pads (4.5 cm×4.5 cm) and held in place with Tegaderm® dressing for the entire exposure duration. After the exposure period, residual test article is removed with water or other appropriate solvent, without altering the existing response or the integrity of the epidermis. Prior to dosing and repeatedly post dosing, dermal irritation is scored for erythema/eschar and edema.

[3] = ternary solvent mixtures with water as anti-solvent; assay type: physicochemical; details: 1 ml polyethylene glycol + 1 ml ethanol, presence of 0.6 ml water
[4] = test system: sciatic nerve; assay: sciatic nerve block in the rat, duration by algesimeter; assay type: in vivo; details: for duration of sensory nerve block / local anesthesia: injection of 0.5% solution, N=10-12
[5] = saturation solubility in pentane (model propellant); assay type: physicochemical; details: base
Text: In addition to the solubility experiments shown above, the solubilities of bupivacaine and ropivacaine were also investigated using pentane since this is a low molecular weight hydrocarbon, commonly used to model a GRAS (generally recognized as safe) aerosol propellant such as butane.

[6] = test system: nerve ligation model in the rat (L5 and L6 spinal roots of the sciatic nerve); assay: nerve ligation model of neuropathic pain in the rat (tail flick, pinprick allodynia); assay type: in vivo; details: for activity in animal model of neuropathic pain: rat nerve ligation model
[7] = test system: mice with diet-induced pruritus; assay: pruritus model: mice fed diet low in Mg2+ and Zn2+, scratching; details: mouse, in vivo
[8] = test system: human leukocytes (buffy coat); assay: inhibition of A23187-stimulated histamine release from human leukocytes; assay type: cell-based; details: A23187 5 μM, 20 min/37° C.
Experimental: In the present studies, histamine was the marker compound for algesic mediators that are released into the tissues of patients suffering from neuropathic pain. The inhibition of stimulated histamine release from human leukocytes (buffy coat) by test articles was studied. Leukocytes were obtained from healthy volunteers and histamine release was induced by incubation (20 min/37° C.) with the calcium ionophore A23187 (5 μM) in the presence or absence of a test article. Histamine was analyzed by enzyme-immuno assays, using commercially available kits and a microplate reader (MRX, Dynatech).

[9] = test system: guinea pigs (dermal anesthesia); assay: potentiation study: dermal anesthesia in guinea pigs, pinprick methodology; assay type: in vivo; details: guinea pigs N=8
[10] = concentrations up to 0.075 percent (Mason L et al. 2004); cited from earlier work
[11] = in ethanol, 19-21° C., at least 24 hours, HPLC
[12] = in hexylene glycol, 19-21° C., at least 24 hours, HPLC
[13] = in isopropyl alcohol, 19-21° C., at least 24 hours, HPLC
[14] = in propylene glycol, 19-21° C., at least 24 hours, HPLC
[15] = in diisopropyl adipate, 19-21° C., at least 24 hours, HPLC
[16] = in isopropyl myristate, 19-21° C., at least 24 hours, HPLC

CCCCN1CCCCC1C(=O)Nc1c(C)cccc1C.Cl.O (racemic) [Racemic HCl monohydrate]
Solubility of bupivacaine (% w/w) [1, 11]: 4.3 % w/w | Solubility of bupivacaine (% w/w) [1, 12]: 2.1 % w/w | Solubility of bupivacaine (% w/w) [1, 13]: 0.5 % w/w | Solubility of bupivacaine (% w/w) [1, 14]: 3.2 % w/w

CCCCN1CCCCC1C(=O)Nc1c(C)cccc1C (racemic) [Racemic free base]
Solubility of bupivacaine (% w/w) [1, 15]: 6.2 % w/w | Solubility of bupivacaine (% w/w) [1, 11]: 36.8 % w/w | Solubility of bupivacaine (% w/w) [1, 12]: 17.8 % w/w | Solubility of bupivacaine (% w/w) [1, 13]: 20.5 % w/w | Solubility of bupivacaine (% w/w) [1, 16]: 3.5 % w/w | Solubility of bupivacaine (% w/w) [1, 14]: 4.8 % w/w

CCCCN1CCCC[C@H]1C(=O)Nc1c(C)cccc1C (single isomer, unassigned) [Isomer HCl monohydrate]
Solubility of bupivacaine (% w/w) ([1]; in ethanol, determined gravimetrically): 3.8-4.4^1 % w/w

CCCCN1CCCC[C@H]1C(=O)Nc1c(C)cccc1C (single isomer, unassigned) [Isomer free base]
Solubility of bupivacaine (% w/w) [1, 15]: 2.7 % w/w | Solubility of bupivacaine (% w/w) [1, 11]: 16.5 % w/w | Solubility of bupivacaine (% w/w) [1, 12]: 8.0 % w/w | Solubility of bupivacaine (% w/w) [1, 13]: 8.9 % w/w | Solubility of bupivacaine (% w/w) [1, 16]: 1.6 % w/w | Solubility of bupivacaine (% w/w) [1, 14]: 2.1 % w/w

C[S+](C)[O-] [DMSO, Dimethyl sulfoxide]
dermal irritation of DMSO with local anesthetic [2]: do not cause increased dermal irritation

CCCN1CCCC[C@H]1C(=O)Nc1c(C)cccc1C [S-ropivacaine free base]
solubility in ternary solvent mixture with water as anti-solvent [3]: dramatically decreased | Solubility, % w/w ([1]; S-ropivacaine free base in diisopropyl adipate, 19-21° C., at least 24 hours): 1.7 % w/w | Solubility, % w/w ([1]; S-ropivacaine free base in ethanol, 19-21° C., at least 24 hours): 10.0 % w/w | Solubility, % w/w ([1]; S-ropivacaine free base in hexylene glycol, 19-21° C., at least 24 hours): 5.1 % w/w | Solubility, % w/w ([1]; S-ropivacaine free base in isopropyl alcohol, 19-21° C., at least 24 hours): 5.2 % w/w | Solubility, % w/w ([1]; S-ropivacaine free base in isopropyl myristate, 19-21° C., at least 24 hours): 0.9 % w/w | Solubility, % w/w ([1]; S-ropivacaine free base in propylene glycol, 19-21° C., at least 24 hours): 1.6 % w/w | solubility compared with bupivacaine free base ([1]; all solvents of Table 6): consistently lower

CCCCN1CCCCC1C(=O)Nc1c(C)cccc1C (stereo not shown) [bupivacaine HCl]
duration of sensory nerve block ([4]; injection of 0.25% solution, algesimeter (5 gram), rat): 70 ± 5 min | duration of sensory nerve block / local anesthesia ([4]; algesimeter (5 gram), rat): 99 ± 7 min

CCCCN1CCCCC1C(=O)Nc1c(C)cccc1C (stereo not shown) [bupivacaine, RS—N-(2,6-dimethylphenyl)-1-butylpiperidine-2-carboxamide]
Saturation solubility in pentane [5]: >0.1% | duration of analgesic activity compared with lidocaine ([6]; neuropathic pain model, single administration): longer duration than that offered by lidocaine | pain relief after repeated administrations ([6]; repeated administrations): long-lasting (days not hours) pain relief | anti-allodynic effect (paw withdrawal, pinprick) ([6]; single systemic administration (0.5%), algesimeter set at 5 grams): prolonged anti-allodynic effect | analgesia, tail-flick test method ([6]; single systemic administration of bupivacaine (0.5%) three days after nerve ligation, tail flick in warm (140° F.) water): 100% | antipruritic activity / safety and efficacy in animal model of pruritus [7]: antipruritic activity | inhibition of stimulated histamine release [8]: significant inhibitory activity | potency on histamine release compared with lidocaine [8]: more potent than lidocaine | duration of dermal anesthesia ([9]; 5% in DMSO/water in a dermal patch, applied for 60 min, pinprick): 60 ± 5 min | dose causing motor nerve blocks after injections ([4]; after injections, doses as low as): ≥ 0.1%

COc1cc(CNC(=O)CCCC/C=C/C(C)C)ccc1O [capsaicin]
efficacy of dermal capsaicin [10]: only marginally effective | dermal anesthesia (in words) ([9]; capsaicin alone, low dose): too low to result in measurable dermal anesthesia

CCN(CC)CC(=O)Nc1c(C)cccc1C [lidocaine]
activity in animal model of neuropathic pain [6]: had activity | duration of sensory nerve block / local anesthesia ([4]; algesimeter (5 gram), rat): approximately 40 min

Cc1cccc(C)c1NC(=O)C1CCCCN1C (stereo not shown) [mepivacaine]
duration of sensory nerve block / local anesthesia ([4]; algesimeter (5 gram), rat): approximately 40 min

CCCN1CCCCC1C(=O)Nc1c(C)cccc1C (stereo not shown) [ropivacaine, RS—N-(2,6-dimethylphenyl)-1-propylpiperidine-2-carboxamide]
Saturation solubility in pentane [5]: >0.1% | activity in animal model of neuropathic pain [6]: had activity | antipruritic activity / safety and efficacy in animal model of pruritus [7]: antipruritic activity
